Here are results for nine compounds from ChEMBL document CHEMBL1811754, “Sesquiterpene and xanthone derivatives from the sea fan-derived fungus Aspergillus sydowii PSU-F154” (J Nat Prod, 2011).

Calls of active or inactive are those of the source. The calls are words filed in the database; no cut-off is given here.

For the test, the system named is Radical scavenging activity. The test can be described thus: Antioxidant activity assessed as DPPH radical scavenging activity after 30 mins by spectrophotometry. Format: functional.

In the case of `CO[C@@](C)(CCCC(C)C)c1ccc(C(=O)O)cc1O`, the result was inactive.
The same measure, in the same setting: next, `COC(=O)c1cccc2oc3cc(CO)cc(O)c3c(=O)c12`: “inactive”; `Cc1c(CCC(C)C)oc2cc(C(=O)O)ccc12`: “inactive”; `C/C(=C\CCC(C)C)c1ccc(CO)cc1O`: “inactive”.
Same read-out and setting: next, `COC(=O)c1cccc2oc3cc(C)cc(O)c3c(=O)c12`: “inactive”; `COC(=O)c1c(O)ccc2oc3cc(CO)cc(O)c3c(=O)c12`: “inactive”.
Still for that read-out and setting: next, `O=C1N[C@@H](Cc2c[nH]c3ccccc23)C(=O)N[C@H]1Cc1ccccc1`: “inactive”.
With `COC(=O)[C@@]1(O)c2c(oc3cc(C)cc(O)c3c2=O)CC[C@H]1O`, the outcome was inactive.
Turning to `COC(=O)[C@@H]1c2c(oc3cc(CO)cc(O)c3c2=O)C=C[C@H]1O`, the IC50 amounted to 17 µM.

In general, IC50 refers to the midpoint of a concentration-inhibition curve.
